Experimental data: patent US20060106085A1, “Methods and compositions using PDE4 modulators for treatment and management of central nervous system injury” (priority 2004, published 2006)

Assays:
[1] = tested on: spinal cord contusion; conditions: cited from earlier work
[2] = tested on: PDE4; test: Inhibition of PDE4 enzyme purified from U937 human monocytic cells; type: biochemical; conditions: 1 μM cAMP, 30 min at 30° C.
Protocol: PDE4 enzyme was purified from U937 human monocytic cells by gel filtration chromatography as previously described (Muller et al. 1998, Bioorg. & Med Chem Lett 8:2669-2674). Phosphodiesterase reactions were carried out in 50 mM Tris HCl pH 7.5, 5 mM MgCl2, 1 μM cAMP, 10 nM [^311)-cAMP for 30 min at 30° C., terminated by boiling, treated with 1 mg/ml snake venom, and separated using AG-1×S ion exchange resin (BioRad) as described (Muller et al. 1998, Bioorg. & Med Chem Lett 8:2669-2674). Reactions consumed less than 15% of available substrate.

[3] = tested on: TNF-α production from human PBMC; test: LPS-induced TNF-α production from human PBMC; type: cell-based; conditions: LPS 100 ng/ml, compound added 1 hour before LPS, 18-20 hours, ELISA
Protocol: Inhibition of TNF-α production following LPS-stimulation of human PBMC and human whole blood by 3-(3,4-dimethoxy-phenyl)-3-(1-oxo-1,3-dihydro-isoindol-2-yl)-propionamide is investigated in vitro (Muller et al., Bioorg. Med. Chem. Lett. 9:1625-1630, 1999). The IC50's of 3-(3,4-dimethoxy-phenyl)-3-(1-oxo-1,3-dihydro-isoindol-2-yl)-propionamide for inhibiting production of TNF-α following LPS-stimulation of PBMC and human whole blood is measured.
For example, 3-(3,4-dimethoxy-phenyl)-3-(1-oxo-1,3-dihydro-isoindol-2-yl)-propionamide was tested for the ability to inhibit LPS-induced TNF-α production from human PBMC as previously described (Muller et al. 1996, J. Med. Chem. 39:3238). PBMC from normal donors were obtained by Ficoll Hypaque (Pharmacia, Piscataway, N.J., USA) density centrifugation. Cells were cultured in RPMI (Life Technologies, Grand Island, N.Y., USA) supplemented with 10% AB±human serum (Gemini Bio-products, Woodland, Calif., USA), 2 mM L-glutamine, 100 U/ml penicillin, and 100 μg/ml streptomycin (Life Technologies).
PBMC (2×10^5 cells) were plated in 96-well flat-bottom Costar tissue culture plates (Corning, N.Y., USA) in triplicate. Cells were stimulated with LPS (Sigma, St. Louis, Mo., USA) at 100 ng/ml in the absence or presence of compounds. […]

[4] = tested on: TNF-α production from human PBMC; test: IL-1β-induced TNF-α production from human PBMC; type: cell-based; conditions: 50 ng/ml recombinant human IL-1β, 18 hours
Protocol: During the course of inflammatory diseases, TNF-α production is often stimulated by the cytokine 1L-1β rather than by bacterially derived LPS. 3-(3,4-Dimethoxy-phenyl)-3-(1-oxo-1,3-dihydro-isoindol-2-yl)-propionamide was tested for the ability to inhibit IL-1β-induced TNF-α production from human PBMC as described above for LPS-induced TNF-α production, except that the PBMC are isolated from source leukocyte units (Sera-Tec Biologicals, North Brunswick, N.J., USA) by centrifugation on Ficoll-Paque Plus (Amersham Pharmacia, Piscataway, N.J., USA), plated in 96-well tissue culture plates at 3×10^5 cells/well in RPMI-1640 medium (BioWhittaker, Walkersville, Md., USA) containing 10% heat-inactivated fetal bovine serum (Hyclone), 2 mM L-glutamine, 100 U/ml penicillin, and […] (complete medium), pretreated with compounds at 10, 2, 0.4, 0.08, 0.016, 0.0032, 0.00064, and 0 μM in duplicate at a final DMSO concentration of 0.1% at 37° C. in a humidified incubator at 5% CO2 for 1 hour, then stimulated with 50 ng/ml recombinant human IL-1β (Endogen) for 18 hours.

[5] = Cardiovascular and respiratory function in anesthetized dogs; type: in vivo; conditions: anesthetized Beagle dogs, 400, 800, and 1,200 mg/kg/day ascending doses, infusion through the jugular vein, compared to vehicle control
Protocol: The effects of 3-(3,4-dimethoxy-phenyl)-3-(1-oxo-1,3-dihydro-isoindol-2-yl)-propionamide on cardiovascular and respiratory function are investigated in anesthetized dogs. Two groups of Beagle dogs (2/sex/group) are used. One group receives three doses of vehicle only and the other receives three ascending doses of 3-(3,4-dimethoxy-phenyl)-3-(1-oxo-1,3-dihydro-isoindol-2-yl)-propionamide (400, 800, and 1,200 mg/kg/day). In all cases, doses of 3-(3,4-dimethoxy-phenyl)-3-(1-oxo-1,3-dihydro-isoindol-2-yl)-propionamide or vehicle are successively administered via infusion through the jugular vein separated by intervals of at least 30 minutes.

Structure (SMILES) | locomotion ([1]; combination of rolipram with db-cAMP) | axon sparing and myelination ([1]; combined with Schwann cell grafts) | cAMP levels after spinal cord contusion ([1]; rolipram alone) | IC50 [2] [µM] | IC50 [3] [µM] | IC50 [4] [µM] | cardiovascular and respiratory changes [5]
COc1ccc(C2CNC(=O)C2)cc1OC1CCCC1 (stereo not shown) [rolipram] | improved locomotion | promoted significant supraspinal and proprioceptive axon sparing and myelination | prevented the decrease of cAMP levels |  |  |  | 
COc1ccc(C(CC(N)=O)N2Cc3ccccc3C2=O)cc1OC (stereo not shown) [3-(3,4-dimethoxy-phenyl)-3-(1-oxo-1,3-dihydro-isoindol-2-yl)-propionamide] |  |  |  | 15 | 21 | 16 | minimal at all doses
